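Following 48 hours of exposure in 96-well plates, responses at five concentrations were used to interpolate endpoints linearly. GI50 is the concentration that inhibits growth by half.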 Calls of active or inactive are those of the source. Cut-off read from the data, not from the text of the source: active = GI50 up to about 1.1 µM and inactive = higher.
Experiments:
Test in all cases: NCI anticancer screen, dose series, 48 h
[1] = system: 786-0
[2] = system: A498
[3] = system: A549
[4] = system: ACHN
[5] = system: BT-549
[6] = system: CCRF-CEM
[7] = system: COLO 205
[8] = system: DU-145
[9] = system: EKVX
[10] = system: HCT-116
[11] = system: HCT-15
[12] = system: HL-60
[13] = system: HOP-62
[14] = system: HOP-92
[15] = system: HT-29
[16] = system: Hs-578T
[17] = system: IGROV-1
[18] = system: K562
[19] = system: KM12
[20] = system: LOX IMVI
[21] = system: M14
[22] = system: MCF7
[23] = system: MDA-MB-231
[24] = system: MDA-MB-435
[25] = system: MDA-N
[26] = system: MOLT-4
[27] = system: NCI-H226
[28] = system: NCI-H23
[29] = system: NCI-H460
[30] = system: NCI-H522
[31] = system: NCI/ADR-RES
[32] = system: OVCAR-3
[33] = system: OVCAR-4
[34] = system: OVCAR-5
[35] = system: OVCAR-8
[36] = system: PC-3
[37] = system: RPMI-8226
[38] = system: RXF 393
[39] = system: SF-268
[40] = system: SF-295
[41] = system: SF-539
[42] = system: SK-MEL-28
[43] = system: SK-MEL-2
[44] = system: SK-OV-3
[45] = system: SN12C
[46] = system: SNB-19
[47] = system: SNB-75
[48] = system: SR
[49] = system: SW-620
[50] = system: TK-10
[51] = system: U-251
[52] = system: UACC-257
[53] = system: UACC-62
[54] = system: UO-31
[55] = system: CAKI-1
[56] = system: HCC 2998
[57] = system: Malme-3M
[58] = system: SK-MEL-5
[59] = system: T47D

Compound: CC(C)C1N(C)c2ccc(Cl)cc2[C@H]2c3ccccc3CCN12 (stereo partly specified)
- GI50 [1]: > 100 µM (inactive)
- GI50 [2]: 78 µM (inactive)
- GI50 [3]: 39 µM (inactive)
- GI50 [4]: 82.2 µM (inactive)
- GI50 [5]: > 100 µM (inactive)
- GI50 [6]: 97.9 µM (inactive)
- GI50 [7]: 36.4 µM (inactive)
- GI50 [8]: 53.5 µM (inactive)
- GI50 [9]: 28 µM (inactive)
- GI50 [10]: 40.2 µM (inactive)
- GI50 [11]: 37.1 µM
- GI50 [12]: 27.7 µM (inactive)
- GI50 [13]: > 100 µM (inactive)
- GI50 [14]: 24.9 µM (inactive)
- GI50 [15]: 22.1 µM (inactive)
- GI50 [16]: 25.8 µM (inactive)
- GI50 [17]: 23.4 µM (inactive)
- GI50 [18]: 71.8 µM (inactive)
- GI50 [19]: 50.9 µM (inactive)
- GI50 [20]: 31.6 µM (inactive)
- GI50 [21]: 55.1 µM (inactive)
- GI50 [22]: 30.7 µM (inactive)
- GI50 [23]: 24.4 µM (inactive)
- GI50 [24]: 23 µM (inactive)
- GI50 [25]: 26.1 µM (inactive)
- GI50 [26]: 37.8 µM (inactive)
- GI50 [27]: 14.3 µM (inactive)
- GI50 [28]: > 100 µM (inactive)
- GI50 [29]: 94.8 µM (inactive)
- GI50 [30]: 21.9 µM (inactive)
- GI50 [31]: > 100 µM (inactive)
- GI50 [32]: 27.2 µM (inactive)
- GI50 [33]: 69.2 µM (inactive)
- GI50 [34]: 38.3 µM (inactive)
- GI50 [35]: > 100 µM (inactive)
- GI50 [36]: 62.4 µM (inactive)
- GI50 [37]: 18.7 µM (inactive)
- GI50 [38]: 47.5 µM (inactive)
- GI50 [39]: > 100 µM (inactive)
- GI50 [40]: 18.2 µM (inactive)
- GI50 [41]: > 100 µM (inactive)
- GI50 [42]: 54.8 µM (inactive)
- GI50 [43]: 25.9 µM (inactive)
- GI50 [44]: > 100 µM (inactive)
- GI50 [45]: 45.2 µM (inactive)
- GI50 [46]: > 100 µM (inactive)
- GI50 [47]: 61.8 µM (inactive)
- GI50 [48]: 29.9 µM (inactive)
- GI50 [49]: 97.3 µM (inactive)
- GI50 [50]: 89.9 µM (inactive)
- GI50 [51]: 61.5 µM (inactive)
- GI50 [52]: 30.4 µM (inactive)
- GI50 [53]: 25.4 µM (inactive)
- GI50 [54]: 98.4 µM (inactive)

Compound: Clc1cc2ccccc2c2ccccc12
- GI50 [1]: > 100 µM (inactive)
- GI50 [2]: > 100 µM (inactive)
- GI50 [3]: 44 µM (inactive)
- GI50 [4]: 82.2 µM (inactive)
- GI50 [5]: 49.2 µM (inactive)
- GI50 [55]: 42 µM (inactive)
- GI50 [6]: < 0.01 µM (active)
- GI50 [7]: 26.9 µM (inactive)
- GI50 [8]: 43 µM (inactive)
- GI50 [9]: 41.5 µM (inactive)
- GI50 [56]: 41 µM (inactive)
- GI50 [10]: > 100 µM (inactive)
- GI50 [11]: 25.6 µM
- GI50 [12]: 35.2 µM (inactive)
- GI50 [13]: > 100 µM (inactive)
- GI50 [14]: 38.5 µM (inactive)
- GI50 [15]: 32.4 µM (inactive)
- GI50 [16]: 65.6 µM (inactive)
- GI50 [17]: 64 µM (inactive)
- GI50 [18]: 42.1 µM (inactive)
- GI50 [19]: 47.9 µM (inactive)
- GI50 [20]: 53.7 µM (inactive)
- GI50 [21]: 31.5 µM (inactive)
- GI50 [22]: 31.7 µM (inactive)
- GI50 [23]: > 100 µM (inactive)
- GI50 [24]: 28.2 µM (inactive)
- GI50 [26]: 69.2 µM (inactive)
- GI50 [57]: 37 µM (inactive)
- GI50 [27]: > 100 µM (inactive)
- GI50 [28]: 81.5 µM (inactive)
- GI50 [29]: 44.8 µM (inactive)
- GI50 [30]: 33.8 µM (inactive)
- GI50 [31]: > 100 µM (inactive)
- GI50 [32]: 52.2 µM (inactive)
- GI50 [33]: 42.1 µM (inactive)
- GI50 [34]: > 100 µM (inactive)
- GI50 [35]: > 100 µM (inactive)
- GI50 [36]: 50.2 µM (inactive)
- GI50 [37]: 31.9 µM (inactive)
- GI50 [38]: 32.8 µM (inactive)
- GI50 [39]: 74 µM (inactive)
- GI50 [40]: 45.3 µM (inactive)
- GI50 [41]: 64 µM (inactive)
- GI50 [42]: 46.2 µM (inactive)
- GI50 [43]: 27.5 µM (inactive)
- GI50 [58]: 63.2 µM (inactive)
- GI50 [45]: 86.3 µM (inactive)
- GI50 [46]: 43 µM (inactive)
- GI50 [47]: > 100 µM (inactive)
- GI50 [48]: 30.8 µM (inactive)
- GI50 [49]: 90.6 µM (inactive)
- GI50 [59]: 32 µM (inactive)
- GI50 [50]: > 100 µM (inactive)
- GI50 [51]: 44 µM (inactive)
- GI50 [52]: 55.2 µM (inactive)
- GI50 [53]: 62.4 µM (inactive)
- GI50 [54]: 97.3 µM (inactive)

From ChEMBL document CHEMBL1201862, “PubChem BioAssay data set” (2004)
